# Experimental data: article PMC5385555, “Molecular basis for the behavioral effects of the odorant degrading enzyme Esterase 6 in Drosophila” (Scientific Reports, 2017)
# Target: T1, LUSH (Drosophila melanogaster, UniProt O02372)
# T1 sequence (O02372 30-153): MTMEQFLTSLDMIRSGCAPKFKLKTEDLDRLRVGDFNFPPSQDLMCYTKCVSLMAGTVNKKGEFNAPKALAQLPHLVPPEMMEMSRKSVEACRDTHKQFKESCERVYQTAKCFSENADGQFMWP
# Test: fluorescence titration
# Assay type: binding
# Settings: read-out: dissociation constant
# Method: fluorescence titration on LUSH | A saturable NPN fluorescence change was recorded by a fluorometer and the dissociation constant
smiles,measurement,value
c1ccc(Nc2cccc3ccccc23)cc1 [N-phenyl-1-naphthylamine],Kd,2390 nM
